Publication PMC5218480 (PLoS ONE, 2017)

Tested on: MV-4-11 cells
Assay: Gene expression microarray analysis (Affymetrix PrimeView) and GSEA
Format: cell-based, human
Design: RFU PODN (11730768_x_at) / Fold change /veh PODN (11730768_x_at) / RFU LINC00158 (11744669_a_at) / Fold change /veh LINC00158 (11744669_a_at) / RFU DUSP10 (11751237_a_at) / Fold change /veh DUSP10 (11751237_a_at) / RFU ID3 (11757404_x_at) / Fold change /veh ID3 (11757404_x_at) / RFU PLEKHG5 (11737974_s_at) / Fold change /veh PLEKHG5 (11737974_s_at) / RFU LRRC4B (11730491_at) / Fold change /veh LRRC4B (11730491_at) / RFU GIMAP4 (11747438_a_at) / Fold change /veh GIMAP4 (11747438_a_at) / RFU KRT8 (11758183_x_at) / Fold change /veh KRT8 (11758183_x_at) / RFU CNN1 (11734310_a_at) / Fold change /veh CNN1 (11734310_a_at) / RFU VPS37D (11726825_at) / Fold change /veh VPS37D (11726825_at) / RFU C10orf10 (11716522_x_at) / Fold change /veh C10orf10 (11716522_x_at) / RFU KIR2DL2 /// KIR2DL4 /// KIR2DL5A /// KIR2DL5B /// KIR2DS1 /// KIR2DS2 /// KIR2DS3 /// KIR2DS4 /// KIR3DL3 /// KIR3DL3 /// KIR3DS1 (11738374_at) / Fold change /veh KIR2DL2 /// KIR2DL4 /// KIR2DL5A /// KIR2DL5B /// KIR2DS1 /// KIR2DS2 /// KIR2DS3 /// KIR2DS4 /// KIR3DL3 /// KIR3DL3 /// KIR3DS1 (11738374_at) / RFU C1QL1 (11718748_at) / Fold change /veh C1QL1 (11718748_at) / RFU TMPRSS4 (11747572_a_at) / Fold change /veh TMPRSS4 (11747572_a_at) / RFU HAMP (11756126_x_at) / Fold change /veh HAMP (11756126_x_at) / RFU RNFT2 (11725882_a_at) / Fold change /veh RNFT2 (11725882_a_at) / RFU NR4A2 (11747474_a_at) / Fold change /veh NR4A2 (11747474_a_at) / RFU ABCC12 (11746883_a_at) / Fold change /veh ABCC12 (11746883_a_at) / RFU TMEM136 (11760407_x_at) / Fold change /veh TMEM136 (11760407_x_at) / RFU CLDN22 /// WWC2 (11732394_at) / Fold change /veh CLDN22 /// WWC2 (11732394_at) / RFU HLA-DPB1 (11760878_x_at) / Fold change /veh HLA-DPB1 (11760878_x_at) / RFU SPINT1 (11716480_a_at) / Fold change /veh SPINT1 (11716480_a_at) / RFU GAP43 (11754022_s_at) / Fold change /veh GAP43 (11754022_s_at) / RFU A4GNT (11735810_at) / Fold change /veh A4GNT (11735810_at) / RFU PRB3 (11715151_x_at) / Fold change /veh PRB3 (11715151_x_at) / RFU TUBB4B (11761932_at) / Fold change /veh TUBB4B (11761932_at) / RFU CAPN14 (11732068_a_at) / Fold change /veh CAPN14 (11732068_a_at) / RFU TMCC2 (11721928_a_at) / Fold change /veh TMCC2 (11721928_a_at) / RFU IRGQ (11745062_a_at) / Fold change /veh IRGQ (11745062_a_at) / RFU FAM174B (11720279_a_at) / Fold change /veh FAM174B (11720279_a_at) / RFU TMPRSS4 (11748680_a_at) / Fold change /veh TMPRSS4 (11748680_a_at) / RFU FAM212B (11763350_a_at) / Fold change /veh FAM212B (11763350_a_at) / RFU PLEKHG5 (11743358_a_at) / Fold change /veh PLEKHG5 (11743358_a_at) / RFU ZSCAN30 (11745921_a_at) / Fold change /veh ZSCAN30 (11745921_a_at) / RFU CMKLR1 (11741424_a_at) / Fold change /veh CMKLR1 (11741424_a_at) / RFU LOC101060620 /// MAPK8IP1 (11723275_at) / Fold change /veh LOC101060620 /// MAPK8IP1 (11723275_at) / RFU SPTSSB (11747773_x_at) / Fold change /veh SPTSSB (11747773_x_at) / RFU PRSS12 (11739890_at) / Fold change /veh PRSS12 (11739890_at) / RFU BIN1 (11741810_x_at) / Fold change /veh BIN1 (11741810_x_at) / RFU WNT11 (11732464_a_at) / Fold change /veh WNT11 (11732464_a_at) / RFU C10orf10 (11716521_a_at) / Fold change /veh C10orf10 (11716521_a_at) / RFU C5orf56 (11738089_at) / Fold change /veh C5orf56 (11738089_at) / RFU CYB561 (11721691_x_at) / Fold change /veh CYB561 (11721691_x_at) / RFU ANKRD19P (11752326_a_at) / Fold change /veh ANKRD19P (11752326_a_at) / RFU OR2T12 /// OR2T33 /// OR2T8 (11738714_s_at) / Fold change /veh OR2T12 /// OR2T33 /// OR2T8 (11738714_s_at) / RFU VCAN (11748164_a_at) / Fold change /veh VCAN (11748164_a_at) / RFU JSRP1 (11732532_at) / Fold change /veh JSRP1 (11732532_at) / RFU KRTAP10-11 (11738290_x_at) / Fold change /veh KRTAP10-11 (11738290_x_at) / RFU MYO3A (11730013_a_at) / Fold change /veh MYO3A (11730013_a_at) / RFU EBF3 (11725865_a_at) / Fold change /veh EBF3 (11725865_a_at) / RFU CAMK2N1 (11719241_x_at) / Fold change /veh CAMK2N1 (11719241_x_at) / RFU C5orf56 (11738088_a_at) / Fold change /veh C5orf56 (11738088_a_at) / RFU OLFML3 (11715873_a_at) / Fold change /veh OLFML3 (11715873_a_at) / RFU LOC100653217 /// NTM (11731650_a_at) / Fold change /veh LOC100653217 /// NTM (11731650_a_at) / RFU MAPK11 (11762145_a_at) / Fold change /veh MAPK11 (11762145_a_at) / RFU FIZ1 (11724087_x_at) / Fold change /veh FIZ1 (11724087_x_at) / RFU OASL (11726364_x_at) / Fold change /veh OASL (11726364_x_at) / RFU SOX15 (11748057_x_at) / Fold change /veh SOX15 (11748057_x_at) / RFU CD79A (11719716_a_at) / Fold change /veh CD79A (11719716_a_at) / RFU HIST1H1D (11736915_at) / Fold change /veh HIST1H1D (11736915_at) / RFU CASKIN2 (11723855_a_at) / Fold change /veh CASKIN2 (11723855_a_at) / RFU LOC730098 (11760151_x_at) / Fold change /veh LOC730098 (11760151_x_at) / RFU OR4N2 (11742367_at) / Fold change /veh OR4N2 (11742367_at) / RFU PRRT2 (11749266_a_at) / Fold change /veh PRRT2 (11749266_a_at) / RFU SNX32 (11753110_a_at) / Fold change /veh SNX32 (11753110_a_at) / RFU CDHR5 (11726645_a_at) / Fold change /veh CDHR5 (11726645_a_at) / RFU RCAN1 (11760418_a_at) / Fold change /veh RCAN1 (11760418_a_at) / RFU FAM167A (11723789_a_at) / Fold change /veh FAM167A (11723789_a_at) / RFU FAM26E (11764081_at) / Fold change /veh FAM26E (11764081_at) / RFU ISYNA1 (11749810_s_at) / Fold change /veh ISYNA1 (11749810_s_at) / RFU ACY1 (11761880_at) / Fold change /veh ACY1 (11761880_at) / RFU 11764098_at / Fold change /veh 11764098_at / RFU SAMD14 (11745864_x_at) / Fold change /veh SAMD14 (11745864_x_at) / RFU NPB (11741838_a_at) / Fold change /veh NPB (11741838_a_at) / RFU TMPRSS6 (11731388_a_at) / Fold change /veh TMPRSS6 (11731388_a_at) / RFU KRTAP10-2 (11738614_at) / Fold change /veh KRTAP10-2 (11738614_at) / RFU ARHGAP8 /// PRR5-ARHGAP8 (11727945_x_at) / Fold change /veh ARHGAP8 /// PRR5-ARHGAP8 (11727945_x_at) / RFU KRTAP5-7 /// NADSYN1 (11734609_at) / Fold change /veh KRTAP5-7 /// NADSYN1 (11734609_at) / RFU RASL12 (11751679_a_at) / Fold change /veh RASL12 (11751679_a_at) / RFU CDKN2B (11736163_a_at) / Fold change /veh CDKN2B (11736163_a_at) / RFU PRF1 (11729649_at) / Fold change /veh PRF1 (11729649_at) / RFU, ZNF638 /// ZNF638-IT1 / Fold change vs veh, ZNF638 /// ZNF638-IT1 / RFU, PANK3 / Fold change vs veh, PANK3 / RFU, SH3YL1 / Fold change vs veh, SH3YL1 / RFU, ZEB2 / Fold change vs veh, ZEB2 / RFU, NRIP1 / Fold change vs veh, NRIP1 / RFU, PTTG1IP / Fold change vs veh, PTTG1IP / RFU, CAPN2 / Fold change vs veh, CAPN2 / RFU, MED14 / Fold change vs veh, MED14 / RFU, SNORA58 / Fold change vs veh, SNORA58 / RFU, C1orf63 / Fold change vs veh, C1orf63 / RFU, LRRFIP1 / Fold change vs veh, LRRFIP1 / RFU, NDUFAF7 / Fold change vs veh, NDUFAF7 / RFU, SLC12A2 / Fold change vs veh, SLC12A2 / RFU, IBTK / Fold change vs veh, IBTK / RFU, ESF1 / Fold change vs veh, ESF1 / Fold change vs veh, TMEM50B / RFU, TAOK1 / Fold change vs veh, TAOK1 / RFU, ACBD3 / Fold change vs veh, ACBD3 / RFU, TMA16 / Fold change vs veh, TMA16 / RFU, RWDD3 / Fold change vs veh, RWDD3 / RFU, BCAT1 / Fold change vs veh, BCAT1 / RFU, EDEM3 / Fold change vs veh, EDEM3 / RFU, TMEM33 / Fold change vs veh, TMEM33 / RFU, WDR75 / Fold change vs veh, WDR75 / RFU, AHCTF1 / Fold change vs veh, AHCTF1 / RFU, TFRC / Fold change vs veh, TFRC / RFU, ZDHHC17 / Fold change vs veh, ZDHHC17 / RFU, NOM1 / Fold change vs veh, NOM1 / RFU, ARL8B / Fold change vs veh, ARL8B / RFU, ZBTB11 / Fold change vs veh, ZBTB11 / RFU, TAMM41 / Fold change vs veh, TAMM41 / RFU, KIAA1704 /// LOC100996395 / Fold change vs veh, KIAA1704 /// LOC100996395 / RFU, ING1 / Fold change vs veh, ING1 / RFU, TRMT61B / Fold change vs veh, TRMT61B / RFU, FUBP3 / Fold change vs veh, FUBP3 / RFU, TP53 / Fold change vs veh, TP53 / RFU, TNKS2 / Fold change vs veh, TNKS2 / RFU, ZFP14 / Fold change vs veh, ZFP14 / RFU, ACTR2 / Fold change vs veh, ACTR2 / RFU, PPP3R1 / Fold change vs veh, PPP3R1 / RFU, PIK3R1 / Fold change vs veh, PIK3R1 / RFU, HNRNPA1 / Fold change vs veh, HNRNPA1 / RFU, RNF170 / Fold change vs veh, RNF170 / RFU, ZNF28 / Fold change vs veh, ZNF28 / RFU, RNGTT / Fold change vs veh, RNGTT / RFU, OGT / Fold change vs veh, OGT / RFU, BRD1 / Fold change vs veh, BRD1 / RFU, MARS / Fold change vs veh, MARS / RFU, ZNF655 / Fold change vs veh, ZNF655 / RFU, FAHD1 / Fold change vs veh, FAHD1 / RFU, BDP1 / Fold change vs veh, BDP1 / RFU, LRRCC1 / Fold change vs veh, LRRCC1 / RFU, ARID1A / Fold change vs veh, ARID1A / RFU, ZNF146 / Fold change vs veh, ZNF146 / RFU, ZNF330 / Fold change vs veh, ZNF330 / RFU, GPN3 / Fold change vs veh, GPN3 / RFU, C9orf123 / Fold change vs veh, C9orf123 / RFU, N4BP2L2 / Fold change vs veh, N4BP2L2 / RFU, ARFIP1 / Fold change vs veh, ARFIP1 / RFU, FAM179B / Fold change vs veh, FAM179B / RFU, BCL10 / Fold change vs veh, BCL10 / RFU, UHRF1BP1L / Fold change vs veh, UHRF1BP1L / RFU, BET1 / Fold change vs veh, BET1 / RFU, CNOT2 / Fold change vs veh, CNOT2 / RFU, ZNF268 / Fold change vs veh, ZNF268 / Fold change vs veh, ZNF507 / RFU, DGCR2 / Fold change vs veh, DGCR2 / RFU, WDSUB1 / Fold change vs veh, WDSUB1 / Fold change vs veh, HSP90B1 /// MIR3652 / RFU, ADSS / Fold change vs veh, ADSS / RFU, GK / Fold change vs veh, GK / RFU, ZNF148 / Fold change vs veh, ZNF148 / RFU, TAF9 / Fold change vs veh, TAF9 / RFU, SLC1A5 / Fold change vs veh, SLC1A5 / RFU, SLMO2 / Fold change vs veh, SLMO2 / RFU, ABCC4 / Fold change vs veh, ABCC4 / RFU, LOC101060439 /// RAP1B / Fold change vs veh, LOC101060439 /// RAP1B / RFU, RFX7 / Fold change vs veh, RFX7 / RFU, GTPBP10 / Fold change vs veh, GTPBP10 / RFU, CNEP1R1 / Fold change vs veh, CNEP1R1 / RFU, BIVM-ERCC5 /// ERCC5 / Fold change vs veh, BIVM-ERCC5 /// ERCC5 / RFU, ILF3 / Fold change vs veh, ILF3 / RFU 11762660_at / Fold change /veh 11762660_at / RFU VCAN (11757783_s_at) / Fold change /veh VCAN (11757783_s_at) / RFU DDX43 (11728927_at) / Fold change /veh DDX43 (11728927_at) / RFU KRT8 (11758188_x_at) / Fold change /veh KRT8 (11758188_x_at) / RFU NKD1 (11759106_at) / Fold change /veh NKD1 (11759106_at) / RFU SRD5A1 (11742802_a_at) / Fold change /veh SRD5A1 (11742802_a_at) / RFU TPSAB1 /// TPSB2 (11721975_s_at) / Fold change /veh TPSAB1 /// TPSB2 (11721975_s_at) / RFU GSTM3 (11746129_a_at) / Fold change /veh GSTM3 (11746129_a_at) / RFU IL23R (11737362_x_at) / Fold change /veh IL23R (11737362_x_at) / RFU TMEM51 (11727254_a_at) / Fold change /veh TMEM51 (11727254_a_at) / RFU PIWIL2 (11732686_x_at) / Fold change /veh PIWIL2 (11732686_x_at) / RFU ORM1 (11744905_x_at) / Fold change /veh ORM1 (11744905_x_at) / RFU CCDC152 (11743942_at) / Fold change /veh CCDC152 (11743942_at) / RFU ECM1 (11717891_a_at) / Fold change /veh ECM1 (11717891_a_at) / RFU IL23R (11748794_a_at) / Fold change /veh IL23R (11748794_a_at) / RFU TNFAIP8L3 (11732012_x_at) / Fold change /veh TNFAIP8L3 (11732012_x_at) / RFU MBOAT4 (11741988_at) / Fold change /veh MBOAT4 (11741988_at) / RFU 11764193_at / Fold change /veh 11764193_at / RFU TMEM53 (11763286_at) / Fold change /veh TMEM53 (11763286_at) / RFU MAGEB2 (11727129_at) / Fold change /veh MAGEB2 (11727129_at) / RFU TMEM200A (11744735_a_at) / Fold change /veh TMEM200A (11744735_a_at) / RFU CCDC152 (11751479_a_at) / Fold change /veh CCDC152 (11751479_a_at) / RFU FAM211A (11726209_a_at) / Fold change /veh FAM211A (11726209_a_at) / RFU RGS16 (11746705_a_at) / Fold change /veh RGS16 (11746705_a_at) / RFU VCAN (11755009_s_at) / Fold change /veh VCAN (11755009_s_at) / RFU RHOB (11743442_s_at) / Fold change /veh RHOB (11743442_s_at) / RFU RGS16 (11720943_a_at) / Fold change /veh RGS16 (11720943_a_at) / RFU RGS16 (11720944_at) / Fold change /veh RGS16 (11720944_at) / RFU, VPS4B / Fold change vs veh, VPS4B / RFU, CREB1 / Fold change vs veh, CREB1 / RFU, DNAJC13 / Fold change vs veh, DNAJC13 / RFU, GNAQ / Fold change vs veh, GNAQ / RFU, CDK5R1 / Fold change vs veh, CDK5R1 / RFU, ZRANB3 / Fold change vs veh, ZRANB3 / RFU, CUL4A / Fold change vs veh, CUL4A / RFU, CCNY / Fold change vs veh, CCNY / RFU, UFL1 / Fold change vs veh, UFL1 / RFU, COG3 / Fold change vs veh, COG3 / RFU, DIAPH2 / Fold change vs veh, DIAPH2 / RFU, SKA2 / Fold change vs veh, SKA2 / RFU, AFF3 / Fold change vs veh, AFF3 / RFU, LMF1 / Fold change vs veh, LMF1 / RFU, IPO11 / Fold change vs veh, IPO11 / RFU, DFFB / Fold change vs veh, DFFB / RFU, FOXP1 / Fold change vs veh, FOXP1 / RFU, CARD8 / Fold change vs veh, CARD8 / RFU, STRN3 / Fold change vs veh, STRN3 / RFU, ADK / Fold change vs veh, ADK / RFU, RASSF2 / Fold change vs veh, RASSF2 / RFU, WIPF1 / Fold change vs veh, WIPF1 / RFU, LARP1B / Fold change vs veh, LARP1B / RFU, RASA1 / Fold change vs veh, RASA1 / RFU, RB1 / Fold change vs veh, RB1 / RFU, PPFIA1 / Fold change vs veh, PPFIA1 / RFU, MAT2A / Fold change vs veh, MAT2A / RFU, CCT5 / Fold change vs veh, CCT5 / RFU, WDR92 / Fold change vs veh, WDR92 / RFU, CUX1 / Fold change vs veh, CUX1 / RFU, TTC7A / Fold change vs veh, TTC7A / RFU, TMEM135 / Fold change vs veh, TMEM135 / RFU, DEPTOR / Fold change vs veh, DEPTOR / RFU, CPM / Fold change vs veh, CPM / RFU, DNAJB6 / Fold change vs veh, DNAJB6 / RFU, CACNA2D3 / Fold change vs veh, CACNA2D3 / RFU, DTX4 / Fold change vs veh, DTX4 / RFU, TFCP2 / Fold change vs veh, TFCP2 / RFU, GMCL1 /// GMCL1P1 / Fold change vs veh, GMCL1 /// GMCL1P1 / RFU, AEBP2 / Fold change vs veh, AEBP2 / RFU, SNHG1 /// SNORD22 /// SNORD25 /// SNORD26 /// SNORD27 /// SNORD28 /// SNORD29 /// SNORD31 / Fold change vs veh, SNHG1 /// SNORD22 /// SNORD25 /// SNORD26 /// SNORD27 /// SNORD28 /// SNORD29 /// SNORD31 / Fold change (Aza/veh), C12orf56 (ProbeSet 11735607_a_at) / Fold change (ACY-1035/veh), C12orf56 (ProbeSet 11735607_a_at) / Fold change (Aza/veh), FGFR1OP (ProbeSet 11751329_s_at) / Fold change (ACY-1035/veh), FGFR1OP (ProbeSet 11751329_s_at) / Fold change (Aza/veh), VPS36 (ProbeSet 11739960_a_at) / Fold change (ACY-1035/veh), VPS36 (ProbeSet 11739960_a_at) / RFU SYPL1 (11715823_x_at) / Fold change /veh SYPL1 (11715823_x_at) / RFU IGFBP7 (11715501_s_at) / Fold change /veh IGFBP7 (11715501_s_at) / RFU REEP3 (11722064_at) / Fold change /veh REEP3 (11722064_at) / RFU IGLL1 (11728026_x_at) / Fold change /veh IGLL1 (11728026_x_at): dose or concentration left out as unconfirmed
Settings: ProbeSet 11716931_at; LIST B

Question: Which “RFU, DGCR2” value does the source give for `Nc1ncn([C@@H]2O[C@H](CO)[C@@H](O)[C@H]2O)c(=O)n1` [azacitidine] here?
Answer: 177.81 RFU
